This passage reports Min. conc. response and EC50 results from US7273866B2, “2-aryl thiazole derivatives as KCNQ modulators” (Bristol-Myers Squibb Company, priority 2002, dated 2007).

Some results are limits rather than exact numbers.

In this assay the test system is KCNQ channels. Description: Thallium flux assay for KCNQ channel openers. The class given is cell-based. Conditions: HEK-293 cells stably transfected with a KCNQ family member; for Min. conc. response: minimal active concentration: lowest concentration giving signal amplitude >= four standard deviations of negative controls; for EC50: thallium flux, 10 point concentration series. On the procedure:
Thallium Flux Assay for KCNQ channel Openers. The thallium assay is a modification of that published by Weaver and is referenced in its entirety (Weaver, C. D. WO 02/31508, 2002).
Approximately 20,000 cells/well of an HEK-293 cell line stably transfected with one of the members of the KCNQ family were plated into clear-bottom, black-walled, poly-D-lysine coated, 384 well assay plates in 20 μl/well of low chloride plating medium. Low chloride plating medium was composed of the following: sodium gluconate, 109 mM; potassium gluconate, 5.4 mM; hemi-calcium gluconate, 3.6 mM; magnesium sulfate, 0.8 mM; sodium bicarbonate, 26.2 mM; sodium phosphate monobasic, 1.2 mM; glutamine, 2 mM; glucose, 5 mM; 4-(2-hydroxyethyl)-1-piperazineethanesulfonic acid (HEPES) (pH 7.3) 10 mM, MEM vitamin solution (10× concentration of vitamins, Gibco/LifeTechnologies 11120-052) and MEM amino acid solution (1× concentration of amino acids, Gibco/LifeTechnologies 11130-051).
Following overnight incubation in a 5% CO2 incubator at 37° C., the cells in the plates were loaded with 20 μl/well of a dye loading solution containing the commercially available thallium-sensitive fluorescent dye BTC-AM, the acetomethoxy ester of BTC (see U.S. Pat. No. 5,501,980) (2 μM) and pluronic acid F-127 (Molecular Probes P 6867) (0.02% w/v) in chloride free assay buffer. Chloride free assay buffer was composed of the following: sodium gluconate, 140 mM; potassium gluconate, 2.5 mM; hemi-calcium gluconate, 6 mM; hemi-magnesium gluconate, 2 mM; glucose, 5 mM; HEPES (pH 7.3), 10 mM.
Following incubation in the dye loading solution for from 45-90 min at room temperature, the dye loading solution was removed by aspiration and replaced with 40 μl/well of chloride free assay buffer.
Prior to addition to cell plates, test compound and standard compounds were dissolved in DMSO to 3 mM concentration. Compounds were then diluted from the 3 mM stock to 100-fold over the final assay concentration in DMSO. Finally, compounds in DMSO were diluted from 100-fold over the final assay concentration to 5-fold over the final assay concentration in chloride free assay buffer.
Ten μl/well of compounds at 5-fold over the final assay concentration were then added to the cell plates. This represents a 1:5 dilution, yielding the final test concentration. The wells used for test compounds were A1-P20. Wells A21-P22 contained a standard opener and a maximally efficacious concentration (positive control). Wells A23-P24 contained chloride free assay buffer containing 1% DMSO (negative control).
Following addition of test compounds, the plates were loaded onto the Molecular Devices FLIPR. The 488 nm line of the argon laser was used to excite the BTC and the emission filter was a 540(+/−30) nm. Images were collected at 1 Hz. Ten seconds of baseline were collected and then the FLIPR was used to add 13 μl/well of a stimulus buffer composed of 7.5 mM Tl2SO4 in chloride free assay buffer. Images were collected for an additional 60 seconds.
For data analysis, the amplitude of the average of the negative controls was subtracted from all wells. The amplitudes of the test compounds were then compared to the value of four standard deviations of the negative control wells. The lowest concentration of a test compound sufficient to generate a signal amplitude greater than or equal to four standard deviations from the amplitude of the negative controls was defined as the minimal active concentration.
For generating EC50 values, compounds were serially diluted in 1:3 volume increments to produce a 10 point concentration series. EC50 values were calculated by fitting the resulting amplitudes to a single-site logistic equation. EC50 was defined as the concentration of test compound required to yield 50% of the maximal response. Maximal response (Maximal opening) was the largest signal amplitude divided by the negative control amplitude generated by any concentration of a test compound. […]

As for `COc1ccc(-c2nc(C(F)(F)F)c(C(=O)NCc3cccc(OC(F)(F)F)c3)s2)cc1OC` [Example 91], the Min. conc. response turned out to be 30 µM.
The same measure, in the same setting: as for `COc1ccc(-c2nc(C(F)(F)F)c(C(=O)NC(C)c3cccc(C(F)(F)F)c3)s2)cc1OC` (centres unmarked) [Example 89], the figure is 30 µM.
Still for that read-out and setting: as for `COc1ccc(-c2nc(C(F)(F)F)c(C(=O)NC(C)c3ccc(OC)c(OC)c3)s2)cc1OC` (centres unmarked) [Example 90], the figure is 10 µM.
The same measure, in the same setting: as for `CCN(CC)Cc1ccccc1-c1nc(C(F)(F)F)c(C(=O)NC(C)c2cccc(-c3cccnc3)c2)s1` (centres unmarked) [Example 107], the figure is 30 µM; as for `CCN(Cc1ccncc1)Cc1ccccc1-c1nc(C(F)(F)F)c(C(=O)N[C@@H](C)c2cccc(N3CCOCC3)c2)s1` [Example 115], 3 µM; as for `CC(NC(=O)c1sc(-c2ccccc2F)nc1C(F)(F)F)c1cccc(N)c1` (centres unmarked) [Example 102], 0.3 µM.
With `COc1ccc(-c2nc(C(F)(F)F)c(C(=O)NC(C)c3cccc(OC(F)(F)F)c3)s2)cc1OC` (centres unmarked) [Example 29, 2-(3,4-dimethoxyphenyl)-4-(trifluoromethyl)-N-[1-[3-(trifluoromethoxy)phenyl]ethyl]-5-thiazolecarboxamide], the Min. conc. response worked out at 3 µM and the EC50 fell in the range of 0.05 to 1 µM.
`CCN(CC)Cc1ccccc1-c1nc(C(F)(F)F)c(C(=O)NCc2cccc(F)c2)s1` [Example 79] registered a Min. conc. response of 3 µM and a concentration for a half-maximal effect (EC50) of 0.05 to 1 µM.
`CCN(Cc1cccnc1-c1nc(C(F)(F)F)c(C(=O)N[C@@H](C)c2cccc(N3C[C@@H](C)O[C@@H](C)C3)c2)s1)C(C)C` [Example 65] showed a Min. conc. response of 10 µM and a 50% effective concentration (EC50) of 0.05 to 1 µM.
The matching figures for `CC(NC(=O)c1sc(-c2ccccc2Cl)nc1C(F)(F)F)c1cccc(C(F)(F)F)c1` (centres unmarked) [Example 51, 2-(2-chlorophenyl)-4-(trifluoromethyl)-N-[1-[3-(trifluoromethyl)phenyl]ethyl]-5-thiazolecarboxamide]: 0.3 µM and 0.05 to 1 µM.
`CCN(CC)CCOc1ccccc1-c1nc(C(F)(F)F)c(C(=O)NC(C)c2cccc(OC(F)(F)F)c2)s1` (centres unmarked) [Example 104] registered a Min. conc. response of 10 µM.
In turn, `COc1ccc(-c2nc(C(F)(F)F)c(C(=O)NC(C)c3cccc(OC(F)(F)F)c3)s2)cc1` (centres unmarked) [Example 28, 2-(4-methoxyphenyl)-4-(trifluoromethyl)-N-[1-[3-(trifluoromethoxy)phenyl]ethyl]-5-thiazolecarboxamide] yielded a Min. conc. response of 10 µM and a 50% effective concentration (EC50) of 1 to 20 µM.
Molecule `Cc1cccnc1-c1nc(C(F)(F)F)c(C(=O)N[C@@H](C)c2cccc(N3CCOCC3)c2)s1` [Example 118] had a Min. conc. response of 10 µM.
Molecule `CCN(Cc1ccncc1)Cc1cccnc1-c1nc(C(F)(F)F)c(C(=O)N[C@@H](C)c2cccc(-c3cccnc3)c2)s1` [Example 69, (S)-2-[3-[(4-pyridinylmethyl)ethylaminomethyl]pyridin-2-yl]-4-(trifluoromethyl)-N-[H-[3-(3-pyridinyl)phenyl]ethyl]-5-thiazolecarboxamide] came in with a Min. conc. response of 3 µM and an EC50 of 0.05 to 1 µM.
The matching figures for `CCN(CC)Cc1cccnc1-c1nc(C(F)(F)F)c(C(=O)NC(C)c2cccc(OC(F)(F)F)c2)s1` (centres unmarked) [Example 61, 2-[3-(diethylaminomethyl)pyridin-2-yl]-4-(trifluoromethyl)-N-[1-[3-(trifluoromethoxy)phenyl]ethyl]-5-thiazolecarboxamide]: 30 µM and 0.05 to 1 µM.
In the same order, the values of `COc1ccccc1-c1nc(C(F)(F)F)c(C(=O)NC(C)c2cccc(N)c2)s1` (centres unmarked) [Example 39, 2-(2-methoxyphenyl)-4-(trifluoromethyl)-N-[1-(3-aminophenyl)ethyl]-5-thiazolecarboxamide] are 10 µM and 1 to 20 µM.
The matching figures for `CC(NC(=O)c1sc(-c2ccc(F)cc2)nc1C(F)(F)F)c1cccc(OC(F)(F)F)c1` (centres unmarked) [Example 17, 2-(4-fluorophenyl)-4-(trifluoromethyl)-N-[1-[3-(trifluoromethoxy)phenyl]ethyl]-5-thiazolecarboxamide]: 0.3 µM and below 0.05 µM.
On to `COc1cccc([C@H](C)NC(=O)c2sc(-c3cccc(N4CCOCC4)c3)nc2C(F)(F)F)c1` (stereo in doubt) [Example 99], for which the Min. conc. response was found to be 3 µM.
The same measure, in the same setting: as for `CC(NC(=O)c1sc(-c2cccc(N3CCOCC3)c2)nc1C(F)(F)F)c1cccc(C(F)(F)F)c1` (centres unmarked) [Example 98], the figure is 3 µM.
In turn, `COc1cccc(-c2nc(C(F)(F)F)c(C(=O)N[C@@H](C)c3cccc(OC(F)(F)F)c3)s2)c1` (stereo in doubt) [Example 24, 2-(3-methoxyphenyl)-4-(trifluoromethyl)-N-[1-[3-(trifluoromethoxy)phenyl]ethyl]-5-thiazolecarboxamide] had a Min. conc. response of 3 µM and a concentration for a half-maximal effect (EC50) of 0.05 to 1 µM.
In the same order, the values of `COc1ccccc1-c1nc(C(F)(F)F)c(C(=O)NC(C)c2cccc(N(C)C)c2)s1` (centres unmarked) [Example 25, 2-(2-methoxyphenyl)-4-(trifluoromethyl)-N-[1-[3-(dimethylamino)phenyl]ethyl]-5-thiazolecarboxamide] are 3 µM and 1 to 20 µM.
The matching figures for `CC(NC(=O)c1sc(-c2ccccc2Cl)nc1C(F)(F)F)c1cccc(CN2CCOCC2)c1` (centres unmarked) [Example 53, 2-(2-chlorophenyl)-4-(trifluoromethyl)-N-[1-[3-(4-morpholinylmethyl)phenyl]ethyl]-5-thiazolecarboxamide]: 3 µM and 1 to 20 µM.
In the same order, the values of `CC(NC(=O)c1sc(-c2ccc3c(c2)OCO3)nc1C(F)(F)F)c1cccc(OC(F)(F)F)c1` (centres unmarked) [Example 20, 2-(3,4-dioxolanylphenyl)-4-(trifluoromethyl)-N-[1-[3-(trifluoromethoxy)phenyl]ethyl]-5-thiazolecarboxamide] are 0.3 µM and 1 to 20 µM.
`CC(NC(=O)c1sc(-c2ccccc2N2CCOCC2)nc1C(F)(F)F)c1cccc(C(F)(F)F)c1` (centres unmarked) [Example 56, 2-[2-(4-morpholinyl)phenyl]-4-(trifluoromethyl)-N-[1-[3-(trifluoromethyl)phenyl]ethyl]-5-thiazolecarboxamide] yielded a Min. conc. response of 0.3 µM and an EC50 of 0.05 to 1 µM.
As for `CC(NC(=O)c1sc(-c2cccc(N3CCOCC3)c2)nc1C(F)(F)F)c1cccc(OC(F)(F)F)c1` (centres unmarked) [Example 97], the Min. conc. response was 10 µM.
Molecule `COc1ccccc1-c1nc(C(F)(F)F)c(C(=O)NC(C)c2cccc(N3CCCC3)c2)s1` (centres unmarked) [Example 33, 2-(2-methoxyphenyl)-4-(trifluoromethyl)-N-[1-[3-(1-pyrrolidinyl)phenyl]ethyl]-5-thiazolecarboxamide] registered a Min. conc. response of 3 µM and a concentration giving a half-maximal response (EC50) of 0.05 to 1 µM.
The matching figures for `COc1ccc(-c2nc(C(F)(F)F)c(C(=O)NC(C)c3cccc(OC(F)(F)F)c3)s2)c(OC)c1` (centres unmarked) [Example 30, 2-(2,4-dimethoxyphenyl)-4-(trifluoromethyl)-N-[1-[3-(trifluoromethoxy)phenyl]ethyl]-5-thiazolecarboxamide]: 3 µM and 0.05 to 1 µM.
`COc1cccc([C@H](C)NC(=O)c2sc(-c3ccccc3CN3CCN(C)CC3)nc2C(F)(F)F)c1` [Example 112] showed a Min. conc. response of 30 µM.

As a reminder, the EC50 is the concentration giving half of the maximal effect. Higher therefore signals lower potency in that assay.
